Results on 8 compounds are retold here after ChEMBL document CHEMBL1136133, “Discovery of the first series of inhibitors of human papillomavirus type 11: inhibition of the assembly of the E1-E2-Origin DNA complex” (Bioorg Med Chem Lett, 2003).

The test has as its system human papillomavirus 11. Briefly: Inhibition of the assembly of the (HPV11) Human Papillomavirus Type 11 E1E2 Origin DNA Complex. Format: functional, organism-based.
By IC50 is commonly meant the point on the concentration scale where inhibition reaches its midpoint. A higher IC50 goes with weaker potency. Regarding `O=C(Nc1ccc2c(c1)OCO2)[C@H]1C(c2ccc(Cl)cc2)OC2(C(=O)c3ccccc3C2=O)[C@H]1C(=O)O` (stereo partly drawn), the IC50 is over 80 µM.
In turn, `O=C(Nc1ccc2c(c1)OCO2)[C@H]1[C@@H](c2ccc(Cl)c(Cl)c2)OC2(C(=O)c3ccccc3C2=O)[C@H]1C(=O)O` showed an IC50 of 0.35 µM.
Compound `O=C(Nc1ccc2c(c1)OCO2)[C@H]1[C@@H](c2ccccc2Cl)OC2(C(=O)c3ccccc3C2=O)[C@H]1C(=O)O` registered an IC50 of over 80 µM.
`O=C(Nc1ccc2c(c1)OCO2)[C@H]1[C@@H](c2ccc(Cl)cc2)OC2(C(=O)c3ccccc3C2=O)[C@H]1C(=O)O` yielded an IC50 of 7.8 µM.
The compound `O=C1[C@H]2[C@H](c3ccc(Cl)cc3)OC3(C(=O)c4ccccc4C3=O)[C@H]2C(=O)N1c1ccc2c(c1)OCO2` had a half-inhibitory concentration (IC50) of over 80 µM.
In turn, `O=C1C2C(c3ccc(Cl)cc3)OC3(C(=O)c4ccccc4C3=O)C2C(=O)N1c1ccc2c(c1)OCO2` (stereo not drawn) showed an IC50 of 11 µM.
In the case of `O=C(Nc1ccc2c(c1)OCO2)[C@H]1[C@@H](c2ccccc2)OC2(C(=O)c3ccccc3C2=O)[C@H]1C(=O)O`, the concentration for half-maximal inhibition (IC50) came to 71 µM.
As for `O=C(Nc1ccc2c(c1)OCO2)[C@H]1[C@@H](c2cccc(Cl)c2)OC2(C(=O)c3ccccc3C2=O)[C@H]1C(=O)O`, the figure is 2.6 µM.
